Assay results as given in paper PMC8443589, “Modelling human liver fibrosis in the context of non-alcoholic steatohepatitis using a microphysiological system” (Communications Biology, 2021).
Several values for one entry are separate records, joined by “and”; a condition that tells them apart may be missing. Equal entries are not always repeated.

Key:
[1] = Non-specific compound binding: drug recovery in blank liver MPS plates (no cells), LC-MS; type: in vitro ADME; settings: blank liver MPS platform/plates, vs input media, read-out: Drug recovery incubation in blank MPS platform (no cells)
[2] = test system: liver MPS NASH model + TGFβ (PHH, KC and HSC co-cultures, high fat); assay: Fibrosis-associated soluble biomarkers (TIMP-1, pro-collagen 1) in liver MPS NASH model with TGFβ dosed with OCA or ELF (Fig 6b); type: cell-based, human; settings: NASH + TGF, individual replicates, listed as OCA
Text: (§1) The systems biology approach identified TGFβ to be a key driver in creating a more advanced NASH phenotype in the MPS model, with enhanced fibrotic markers and reduced liver function. […] Therefore, we explored how effective pharmacological intervention would be for NASH microtissues with high NPC numbers supplemented with TGFβ and exposed them to varying concentrations of OCA and ELF QD as previously described (Supp. Fig. 6a). […] OCA had the greatest effect on IL-1Rα whereas ELF had the greatest effect on MCP-1 reflecting the fact that while both candidate drugs have anti-inflammatory properties, but their mechanisms of action are different. […] Finally, we used our quantitative fibrosis imaging assay to assess the effect of each candidate drug on collagen-1 deposition and α-SMA expression (Fig. 6c). […] Both candidate drugs caused a significant reduction in collagen-1 deposition and α-SMA expression, with the highest concentrations of OCA and ELF causing an 80% reduction in α-SMA expression and a 75% reduction in collagen-1 deposition (Fig. 6c).
(§2) Fig. 6 Using enhanced liver MPS NASH model with TGFβ, Obeticholic acid and Elafibranor modulate disease phenotype to a greater extent than in standard NASH model. PHH, KC and HSC co-cultures were cultured in the MPS platform under high-fat conditions and dosed with varying concentrations of Obeticholic acid (OCA) and Elafibranor (ELF) QD or vehicle control for 10 days, following an initial 4-day pre-culture phase. Throughout the compound dosing period TGFβ was also dosed onto all microtissues (NASH only vehicle control samples were also included in the study for comparison, which were not treated with TGFβ or dosed with any compound). a The secreted cytokine profile from treated liver microtissues was compared to determine the effects of each compound on the inflammatory profile of the liver with samples analysed at day 8 and 14 of the culture. Data were normalised by Z-transformation to allow comparison of all analytes (white = undetected). b The expression of fibrosis-associated biomarkers was analysed on day 14 media samples and compared to NASH + TGFβ control samples. c Liver microtissues were stained for collagen-type I, α-SMA, nuclei (DAPI), phalloidin (green) and imaged by confocal microscopy. Representative images are shown and scale bars 200 µm. Staining of microtissues was quantified by measuring total fluorescence intensity throughout individual microtissues, each data point represents an average of all microtissues per MPS culture (min 8, max 20). All datapoints shown with error bars highlighting means ± SD, all data from a minimum of three independent cultures: all comparisons were made to NASH + TGFβ control samples.
Soluble biomarkers in cell culture medium from the MPS were analysed by enzyme-linked immunosorbent assay (ELISA); IL-6 was measured by Human IL-6 DuoSet ELISA (R&D Systems); MCP-1 was measured by Human CCL2/MCP-1 DuoSet ELISA (R&D Systems); pro-collagen 1 was measured by Human Pro-Collagen I α1 DuoSet (R&D Systems); TIMP-1 was measured by Human TIMP-1 Quantikine ELISA Kit (R&D Systems); Fibronectin was measured by Human Fibronectin DuoSet ELISA (R&D Systems); YKL-40 was measured by Human Chitinase 3-like 1 Quantikine ELISA Kit (R&D Systems); Albumin secretion was measured by Human Albumin AssayMax™ ELISA kit (Assay Pro, St. Charles, MO). For all assays, the manufacturer’s protocol was followed.
(§3) Liver microtissues were cultured for 4 days in HEP-FAT medium, before dosing with obeticholic acid or elafibranor. Both compounds were dissolved in DMSO, diluted in cell culture medium (final DMSO concentration ≤1%) and added to microtissues during a full medium change every two days and in addition on the intervening days compounds were spiked into the media to increase drug concentration back to desired concentrations. Cultures were maintained in the presence of the compound, for a total of 10 days in the presence or absence of TGFβ.

[3] = test system: liver MPS NASH model + TGFβ (PHH, KC and HSC co-cultures, high fat); assay: Secreted cytokine profile of enhanced liver MPS NASH model with TGFβ dosed with OCA or ELF (Fig 6a); type: cell-based, human; settings: for IL-1RA production, fold change compared to control / IL-4 production, fold change compared to control / IL-6 production, fold change compared to control / IL-8 production, fold change compared to control / IP-10 production, fold change compared to control / MCP-1 production, fold change compared to control / MIP-1a production, fold change compared to control / MIP-1b production, fold change compared to control / VEGF production, fold change compared to control: vs NASH + TGFβ control
Text: as §1, §2
Cytokine profiles in cell culture medium samples were also analysed by Luminex array for determination of 38 analytes in total, consisting of cytokines, chemokines, and growth factors using the MILLIPLEX MAP Human Cytokine/Chemokine Magnetic Bead Panel - Premixed 38 Plex (Merck Millipore, USA).
as §3

Structure (SMILES): CC[C@H]1[C@@H](O)[C@@H]2[C@H](CC[C@]3(C)[C@@H]([C@H](C)CCC(=O)O)CC[C@@H]23)[C@@]2(C)CC[C@@H](O)C[C@@H]12 [Obeticholic acid]
- recovery at 1 µM [1]: 110%
- Pro-collagen 1 ([2]; 0.25 uM): 444.17 pg/day and 318.9 pg/day and 467.42 pg/day
- TIMP-1 ([2]; 0.25 uM): 197.88 pg/day and 287.39 pg/day and 303.89 pg/day
- Pro-collagen 1 ([2]; 5 uM): 576.99 pg/day and 525.8 pg/day and 497.39 pg/day
- TIMP-1 ([2]; 5 uM): 311.28 pg/day and 328.19 pg/day and 368.24 pg/day
- Pro-collagen 1 ([2]; 12.5 uM): 448.27 pg/day and 351.02 pg/day and 505.76 pg/day
- TIMP-1 ([2]; 12.5 uM): 365.14 pg/day and 327.97 pg/day and 326.64 pg/day
- IL-1RA production, fold change compared to control ([3]; 0.25 µM, Day 8): 1.08 fold change
- IL-4 production, fold change compared to control ([3]; 0.25 µM, Day 8): 1.009 fold change
- IL-6 production, fold change compared to control ([3]; 0.25 µM, Day 8): 1.014 fold change
- IL-8 production, fold change compared to control ([3]; 0.25 µM, Day 8): 1.005 fold change
- IP-10 production, fold change compared to control ([3]; 0.25 µM, Day 8): 1.251 fold change
- MCP-1 production, fold change compared to control ([3]; 0.25 µM, Day 8): 1.076 fold change
- MIP-1a production, fold change compared to control ([3]; 0.25 µM, Day 8): 0.8432 fold change
- MIP-1b production, fold change compared to control ([3]; 0.25 µM, Day 8): 0.7821 fold change
- VEGF production, fold change compared to control ([3]; 0.25 µM, Day 8): 1.067 fold change
- IL-1RA production, fold change compared to control ([3]; 0.25 µM, Day 14): 0.5028 fold change
- IL-4 production, fold change compared to control ([3]; 0.25 µM, Day 14): 0.8171 fold change
- IL-6 production, fold change compared to control ([3]; 0.25 µM, Day 14): 0.4566 fold change
- IL-8 production, fold change compared to control ([3]; 0.25 µM, Day 14): 0.6873 fold change
- IP-10 production, fold change compared to control ([3]; 0.25 µM, Day 14): 1.095 fold change
- MCP-1 production, fold change compared to control ([3]; 0.25 µM, Day 14): 0.7086 fold change
- MIP-1a production, fold change compared to control ([3]; 0.25 µM, Day 14): 0.8386 fold change
- VEGF production, fold change compared to control ([3]; 0.25 µM, Day 14): 1.001 fold change
- IL-1RA production, fold change compared to control ([3]; 5 µM, Day 8): 0.6972 fold change
- IL-4 production, fold change compared to control ([3]; 5 µM, Day 8): 1.1399 fold change
- IL-6 production, fold change compared to control ([3]; 5 µM, Day 8): 1.2962 fold change
- IL-8 production, fold change compared to control ([3]; 5 µM, Day 8): 1.283 fold change
- IP-10 production, fold change compared to control ([3]; 5 µM, Day 8): 1.04 fold change
- MCP-1 production, fold change compared to control ([3]; 5 µM, Day 8): 0.9329 fold change
- MIP-1a production, fold change compared to control ([3]; 5 µM, Day 8): 0.9021 fold change
- MIP-1b production, fold change compared to control ([3]; 5 µM, Day 8): 0.7383 fold change
- VEGF production, fold change compared to control ([3]; 5 µM, Day 8): 1.4206 fold change
- IL-1RA production, fold change compared to control ([3]; 5 µM, Day 14): 0.2072 fold change
- IL-4 production, fold change compared to control ([3]; 5 µM, Day 14): 1.048 fold change
- IL-6 production, fold change compared to control ([3]; 5 µM, Day 14): 0.937 fold change
- IL-8 production, fold change compared to control ([3]; 5 µM, Day 14): 0.8309 fold change
- IP-10 production, fold change compared to control ([3]; 5 µM, Day 14): 1.661 fold change
- MCP-1 production, fold change compared to control ([3]; 5 µM, Day 14): 0.6601 fold change
- MIP-1a production, fold change compared to control ([3]; 5 µM, Day 14): 1.231 fold change
- MIP-1b production, fold change compared to control ([3]; 5 µM, Day 14): 1.514 fold change
- VEGF production, fold change compared to control ([3]; 5 µM, Day 14): 2.374 fold change
- IL-1RA production, fold change compared to control ([3]; 12.5 µM, Day 8): 0.3318 fold change
- IL-4 production, fold change compared to control ([3]; 12.5 µM, Day 8): 0.7385 fold change
- IL-6 production, fold change compared to control ([3]; 12.5 µM, Day 8): 0.7346 fold change
- IL-8 production, fold change compared to control ([3]; 12.5 µM, Day 8): 0.6207 fold change
- IP-10 production, fold change compared to control ([3]; 12.5 µM, Day 8): 1.145 fold change
- MCP-1 production, fold change compared to control ([3]; 12.5 µM, Day 8): 0.4485 fold change
- MIP-1a production, fold change compared to control ([3]; 12.5 µM, Day 8): 1.263 fold change
- MIP-1b production, fold change compared to control ([3]; 12.5 µM, Day 8): 1.247 fold change
- VEGF production, fold change compared to control ([3]; 12.5 µM, Day 8): 1.208 fold change
- IL-1RA production, fold change compared to control ([3]; 12.5 µM, Day 14): 0.02359 fold change
- IL-4 production, fold change compared to control ([3]; 12.5 µM, Day 14): 0.2784 fold change
- IL-6 production, fold change compared to control ([3]; 12.5 µM, Day 14): 0.3766 fold change
- IL-8 production, fold change compared to control ([3]; 12.5 µM, Day 14): 0.4421 fold change
- IP-10 production, fold change compared to control ([3]; 12.5 µM, Day 14): 0.932 fold change
- MCP-1 production, fold change compared to control ([3]; 12.5 µM, Day 14): 0.2604 fold change
- MIP-1a production, fold change compared to control ([3]; 12.5 µM, Day 14): 1.011 fold change
- MIP-1b production, fold change compared to control ([3]; 12.5 µM, Day 14): 1.454 fold change
- VEGF production, fold change compared to control ([3]; 12.5 µM, Day 14): 0.8682 fold change
- cytokine on which the drug had the greatest effect ([3]; NASH microtissues, high NPC, + TGFβ): IL-1Rα
